Data from US9000154B2, “Rho kinase inhibitors” (Boehringer Ingelheim International GmbH, priority 2010, dated 2015).
pIC50: −log10 of the molar value. Structures can show the parent of a compound that is named as a salt.

Experiments:
[1] = system: IL-1 beta-induced coronary stenosis; settings: porcine, long term treatment; cited from earlier work
rat stroke model = settings: cited from earlier work
ROCKII (1-543) [2] = molecular target: T1, ROCKII (1-543) (Homo sapiens, UniProt O75116); assay: IMAP Assay (fluorescence polarization, FAM S6 peptide); assay type: biochemical; set-up: 3 nM ROCKII (1-543) diluted in kinase reaction buffer; settings: IMAP FP, 1 nM ROCKII (1-543), 100 μM ATP; read-out: Assay 2 IC50
Experimental: This assay is performed using FAM S6 substrate peptide (Catalogue #R7184) and IMAP FP Screening Express Kit detection reagents from Molecular Devices (Sunnyvale, Calif.) in IMAP kinase reaction buffer (Tris-HCl, pH 7.2, 10 mM MgCl2, 0.05% NaN3, 0.1% phosphate-free BSA) containing 1 mM DTT. Test compounds dissolved in neat DMSO at 0.3 mg/mL are serially diluted 1 to 3 for concentration response in 100% DMSO. The DMSO serial dilutions are further diluted 33.33-fold in kinase reaction buffer, and 10 μL of this buffer dilution is transferred to Corning black 96-well half area NBS plates for a final top concentration of 3 μg/mL in 1% DMSO. 10 μL aliquot of 3 nM ROCKII (1-543) diluted in kinase reaction buffer is added to each assay well for a final concentration of 1 nM kinase. 10 μL of a mixture of 600 nM FAM S6 peptide and 300 μM ATP diluted in kinase reaction buffer is added to each well for a final concentration of 200 nM peptide and 100 μM ATP. The kinase reaction mixture is incubated for 60 minutes at room temperature. Positive controls are reaction mixtures containing no test compound and negative controls (blanks) are reaction mixtures containing no kinase. The kinase reaction is stopped by addition of 60 μL IMAP progressive binding reagent (Catalog #R7284) diluted 400-fold in 1× Binding buffer A. After 30 min of incubation at room temperature, the plates are read for fluorescence polarization on Analyst Plate Reader using Ex 485 nm, Em 530 nm, and FL 505 dichroic mirror. The mP signals are converted to percent of control (POC) values using the formula: POC=100*(Signal−BCTRL)÷(PCTRL−BCTRL)
Where Signal is the test well signal, BCTRL is the average of background (negative control) well signals on the plate and PCTRL is the average of positive control well signals on the plate. For the concentration-responsive compounds, POC as a function of test compound concentration is fitted to a 4-parameter logistic equation of the form: Y=A+(B−A)/[1+(x/C)D]
Where A, B, C, and D are fitted parameters (parameter B is fixed at zero POC), and x and y are the independent and dependent variables, respectively. The IC50 is determined as the inflection point parameter, C.
Target sequence in this assay (O75116 1-543, species assumed): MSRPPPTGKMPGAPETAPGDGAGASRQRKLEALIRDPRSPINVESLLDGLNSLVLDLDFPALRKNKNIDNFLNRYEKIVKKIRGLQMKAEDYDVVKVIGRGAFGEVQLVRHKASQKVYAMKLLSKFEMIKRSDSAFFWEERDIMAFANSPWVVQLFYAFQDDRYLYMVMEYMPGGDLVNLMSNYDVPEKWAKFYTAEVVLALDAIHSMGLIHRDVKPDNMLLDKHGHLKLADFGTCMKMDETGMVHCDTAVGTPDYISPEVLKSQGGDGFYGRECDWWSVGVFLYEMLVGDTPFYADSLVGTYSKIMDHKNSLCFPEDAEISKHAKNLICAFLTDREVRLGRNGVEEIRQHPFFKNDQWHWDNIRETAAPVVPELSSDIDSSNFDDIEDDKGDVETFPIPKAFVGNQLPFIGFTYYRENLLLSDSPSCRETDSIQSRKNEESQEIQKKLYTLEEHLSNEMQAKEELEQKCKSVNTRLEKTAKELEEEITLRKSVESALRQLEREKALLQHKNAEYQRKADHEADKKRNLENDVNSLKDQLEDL

ROCKII (1-543) [3] = molecular target: T1, ROCKII (1-543); assay: Luciferin-Luciferase Assay (PKLight ATP detection); assay type: biochemical; set-up: ROCKII (1-543) (62,408 Da) was diluted in assay buffer; settings: 7.5 nM ROCKII (1-543), 750 nM ATP
Experimental: 1. Luciferin-Luciferase Assay
The activity of ROCKII (1-543) kinase was measured utilizing Cambrex PKLight ATP Detection Reagent, a homogeneous assay technology using luciferin-luciferase to quantify residual ATP. The assay was performed in 384-well low-volume, white, non-binding surface microtiter plates (Corning). The assay buffer was 25 mM HEPES, pH 7.5, 10 mM MgCl2, 50 mM KCl, 0.2% BSA, 0.01% CHAPS, 100 μM Na3VO4 and 0.5 mM DTT. Test compounds, dissolved in neat DMSO at 500 μg/mL, were serially diluted for dose response for a final starting concentration of 3 μg/mL in 1% DMSO of assay buffer. ROCKII (1-543) (62,408 Da) was diluted in assay buffer to a final concentration of 7.5 nM in a total volume of 15 μL. Positive controls were reaction mixtures containing no test compound; negative controls (blanks) were reaction mixtures containing no kinase. After 15 minutes of pre-incubation of the test compounds with the kinase, a mixture of ATP and peptide substrate (AKRRRLSSLRA) in assay buffer was added to each well for a final concentration of 750 nM ATP and 500 nM peptide, respectively. After 90 minutes of incubation of the kinase reaction at 28° C. temperature, 10 μL of PKLight ATP Detection Reagent (warmed to room temperature previously) was added to each well. The assay plate was incubated at room temperature for additional 15 minutes and then read on an Analyst in luminescence mode. Dose-response experiments for each of the test compounds were conducted in quadruplet. IC50 values of test compounds represent 50% response of the positive control from the dose-response curve.
Target sequence in this assay (O75116 1-543): as the sequence (O75116 1-543, species assumed) above

[4] = system: spontaneously hypertensive rat, renal hypertensive rat and deoxycortisone acetate salt hypertensive rat models; settings: cited from earlier work
[5] = system: neointimal formation in rats; settings: balloon injury model; cited from earlier work
Dahl salt-sensitive rats = settings: congestive heart failure; cited from earlier work

SMILES | pIC50 (ROCKII (1-543) [2]) | pIC50 (ROCKII (1-543) [3]) | other results
O=S(=O)(c1cccc2cnccc12)N1CCCNCC1 [fasudil] | – | – | coronary constrictive remodeling [1]: promote a regression of coronary constrictive remodeling; coronary stenosis [1]: progressively reduce coronary stenosis; infarct size and neurologic deficit (rat stroke model): reduce both the infarct size and neurologic deficit
C[C@@H]1CN(C2CCc3nc(NC(=O)c4cccc(Cn5cc(-c6ccc(C#N)cc6)cn5)c4)sc3C2)C[C@H](C)O1 (stereo partly drawn) [Compound 26, 3-[4-(4-Cyano-phenyl)-pyrazol-1-ylmethyl]-N-[6-((2R,6S)-2,6-dimethyl-morpholin-4-yl)-4,5,6,7-tetrahydro-benzothiazol-2-yl]-benzamide] | 8.41 | 8.37 | –
C[C@@H](N)[C@H]1CC[C@H](C(=O)Nc2ccncc2)CC1 [Compound Y-27632, Y-27632] | – | – | effect on blood pressure in control rats ([4]; control rats): only a minor effect; blood pressure in three rat models of hypertension ([4]; spontaneously hypertensive, renal hypertensive, deoxycortisone acetate salt hypertensive rats): significantly decrease blood pressure; neointimal formation [5]: inhibited neointimal formation; ventricular hypertrophy and function (Dahl salt-sensitive rats): improve ventricular hypertrophy and function
N#Cc1ccc(-c2cn(Cc3cccc(C(=O)Nc4nc5c(s4)CC(N4CCC(F)CC4)CC5)c3)nn2)cc1 (stereo not drawn) [Compound 42, 3-[4-(4-Cyano-phenyl)-1,2,3-triazol-1-ylmethyl]-N-[6-(4-fluoro-piperidin-1-yl)-4,5,6,7-tetrahydro-benzothiazol-2-yl]-benzamide] | 8.96 | 8.47 | –
N#Cc1ccc(-c2cn(Cc3cccc(C(=O)Nc4nc5c(s4)C[C@@H](N4CCCCC4)CC5)c3)nn2)cc1 [Compound 44, 3-[4-(4-Cyano-phenyl)-1,2,3-triazol-1-ylmethyl]-N—((S)-6-piperidin-1-yl-4,5,6,7-tetrahydro-benzothiazol-2-yl)-benzamide] | 9.28 | 8.62 | –

The remaining compounds from weak to strong by pIC50 (ROCKII (1-543) [2]), led by results:

pIC50 (ROCKII (1-543) [2]) | pIC50 (ROCKII (1-543) [3]) | SMILES | other results
8.41 | 8.51 | C[C@@H]1CN(C2CCc3nc(NC(=O)c4cccc(Cn5cc(-c6ccc(C#N)cc6)nn5)c4)sc3C2)C[C@H](C)O1 (stereo partly drawn) [Compound 27, 3-[4-(4-Cyano-phenyl)-[1,2,3]triazol-1-ylmethyl]-N-[6-((2S,6R)-2,6-dimethyl-morpholin-4-yl)-4,5,6,7-tetrahydro-benzothiazol-2-yl]-benzamide] | –
8.62 | 8.34 | N#Cc1ccc(-c2cnn(Cc3cccc(C(=O)Nc4nc5c(s4)CC(N4CCC(F)(F)CC4)CC5)c3)c2)cc1 (stereo not drawn) [Compound 15, 3-[4-(4-Cyano-phenyl)-pyrazol-1-ylmethyl]-N-[6-(4,4-difluoro-piperidin-1-yl)-4,5,6,7-tetrahydro-benzothiazol-2-yl]-benzamide trifluoroacetate] | –
8.70 | 8.54 | CN(CCC#N)[C@H]1CCc2nc(NC(=O)c3cccc(Cn4cc(-c5ccc(C#N)cc5)nn4)c3)sc2C1 [Compound 32, N-{(S)-6-[(2-Cyano-ethyl)-methyl-amino]-4,5,6,7-tetrahydro-benzothiazol-2-yl}-3-[4-(4-cyano-phenyl)-[1,2,3]triazol-1-ylmethyl]-benzamide] | –
8.96 | 8.66 | N#Cc1ccc(-c2cn(Cc3cccc(C(=O)Nc4nc5c(s4)C[C@@H](NCCC(F)(F)F)CC5)c3)nn2)cc1 [Compound 22, 3-[4-(4-Cyano-phenyl)-[1,2,3]triazol-1-ylmethyl]-N—[(S)-6-(3,3,3-trifluoro-propylamino)-4,5,6,7-tetrahydro-benzothiazol-2-yl]-benzamide] | –
9.06 | 8.57 | N#Cc1ccc(-c2cn(Cc3cccc(C(=O)Nc4nc5c(s4)C[C@@H](N4CCOCC4)CC5)c3)cn2)cc1 [Compound 10, 3-[4-(4-Cyano-phenyl)-imidazol-1-ylmethyl]-N—((S)-6-morpholin-4-yl-4,5,6,7-tetrahydro-benzothiazol-2-yl)-benzamide] | –
9.14 | 8.77 | COCCN(C)[C@H]1CCc2nc(NC(=O)c3cccc(Cn4cc(-c5ccc(C#N)cc5)nn4)c3)sc2C1 [Compound 49, 3-[4-(4-Cyano-phenyl)-[1,2,3]triazol-1-ylmethyl]-N-{(S)-6-[(2-methoxy-ethyl)-methyl-amino]-4,5,6,7-tetrahydro-benzothiazol-2-yl}-benzamide] | –
9.46 | 8.68 | COCCN[C@H]1CCc2nc(NC(=O)c3cccc(Cn4cc(-c5ccc(C#N)cc5)cn4)c3)sc2C1 [Compound 45, 3-[4-(4-Cyano-phenyl)-pyrazol-1-ylmethyl]-N—[(S)-6-(2-methoxy-ethylamino)-4,5,6,7-tetrahydro-benzothiazol-2-yl]-benzamide] | –
